Experimental data from PMC11359332, “Characterization of Neonicotinoid Metabolites by Cytochrome P450-Mediated Metabolism in Poultry” (Toxics, 2024).

Experiments:
[1] = tested on: rat liver microsomes (CYP); assay: In vitro CYP metabolism of neonicotinoids, rat liver microsomes, metabolites quantified by LC/MS/MS; format: in vitro ADME
Protocol: (§1) All experimental protocols and animal-handling procedures were performed following the guidelines for animal experiments and approved by the Animal Ethics Research Committee of the Faculty of Veterinary Medicine, […] University, Bangkok, Thailand (Approval number: […]-026). Liver samples of chickens (Gallus domesticus, n = 5), ducks (Anas platyrhynchos, n = 5), […] domesticus, n = 3), quails (Coturnix coturnix, n = 5), and rats (Rattus norvegicus, n = 3) were obtained from the previous study. The liver microsomal fractions used in this study were prepared by the method of Omura and Sato [28] with slight modifications. Briefly, liver sample was homogenized with 0.1 M potassium phosphate buffer (KPB, pH 7.4) and centrifuged at 9000× g at 4 °C for 20 min. The supernatant was collected and centrifuged twice at 105,000× g at 4 °C for 60 min. Microsomal pellets were homogenized with 0.1 M KPB and measured for protein concentrations using the BCA protein assay kit (Thermo Fisher Scientific, Rockford, IL, USA) before being frozen using liquid nitrogen, for storage at -80 °C until analysis. The assay of neonicotinoid metabolism using liver microsome was modified from that of a previous study. Since we had insufficient liver samples to produce the microsomes of geese and quails, the substrates of imidacloprid and clothianidin were not applied for those microsome reactions. However, microsomes of chicken, ducks, and rats were used for all substrate reactions. […] Then, the reaction was initiated by adding a mixture of G6PDH (2 IU/mL) and β-NADPH (0.5 mM), and continuously incubating for 30 min. Then, 0.1% formic acid in acetonitrile was added to stop the reaction. After that, the reaction sample was placed on ice for 15 min before centrifugation at 12,000 g for 10 min. The supernatant (100 μL) was collected and then spiked with neonicotinoid internal standard mixtures (50 μL), then evaporated using a centrifugal evaporator (CVE-200D with UT-2000, EYELA, Tokyo, Japan). The dried sample was re-dissolved with 20% methanol (v/v) and transferred into vials for chemical analysis. […] For all analyses, mobile phase A consisted of 0.1% formic acid + 10 mM ammonium acetate in distilled water and mobile phase B consisted of 0.1% formic acid + 10 mM ammonium acetate in 100% MeOH. The injection volume of 5 μL, the flow rate of 0.40 mL/min with gradient elution, and a column temperature of 45 °C were used for all experiments. The ion signals were acquired with multiple-reaction monitoring (MRM) in positive ionization mode. In the current study, the liver microsome was spiked with deuterium-labelled internal standards (ISs) of the target neonicotinoids before the extraction and purification processes. […] The calibration curves were created using 10-point calibration standards ranging from 0.05 to 20 ng/mL. […] The accuracy of the current analytical method was validated and determined using matrix-spiked neonicotinoid standards at two concentrations, 1 ng/mL and 10 ng/mL. The thirteen target compounds were detected with recovery rates ranging from 87 to 101% at 1 ng/mL, and 86 to 116% at 10 ng/mL. […] In the current study, all the assays were performed in duplicates and the negative controls (the reaction mixture without substrate) were prepared for each sample. […] Statistical analyses were conducted using the JMP […] software (SAS Institute, Carry, NC, USA). One-way ANOVA with post-hoc Tukey-Kramer multiple comparison test was used to compare the Vmax/Km ratio among species. All results were presented as the mean ± standard deviation (SD).

[2] = tested on: quail liver microsomes (CYP); assay: In vitro CYP metabolism of neonicotinoids, quail liver microsomes, metabolites quantified by LC/MS/MS; format: in vitro ADME, quail (Coturnix coturnix)
Protocol: (§2) All experimental protocols and animal-handling procedures were performed following the guidelines for animal experiments and approved by the Animal Ethics Research Committee of the Faculty of Veterinary Medicine, […] University, Bangkok, Thailand (Approval number: […]-026). Liver samples of chickens (Gallus domesticus, n = 5), ducks (Anas platyrhynchos, n = 5), […] domesticus, n = 3), quails (Coturnix coturnix, n = 5), and rats (Rattus norvegicus, n = 3) were obtained from the previous study. The liver microsomal fractions used in this study were prepared by the method of Omura and Sato [28] with slight modifications. Briefly, liver sample was homogenized with 0.1 M potassium phosphate buffer (KPB, pH 7.4) and centrifuged at 9000× g at 4 °C for 20 min. The supernatant was collected and centrifuged twice at 105,000× g at 4 °C for 60 min. Microsomal pellets were homogenized with 0.1 M KPB and measured for protein concentrations using the BCA protein assay kit (Thermo Fisher Scientific, Rockford, IL, USA) before being frozen using liquid nitrogen, for storage at -80 °C until analysis. […] The accuracy of the current analytical method was validated and determined using matrix-spiked neonicotinoid standards at two concentrations, 1 ng/mL and 10 ng/mL. The thirteen target compounds were detected with recovery rates ranging from 87 to 101% at 1 ng/mL, and 86 to 116% at 10 ng/mL. […]

[3] = tested on: duck liver microsomes (CYP); assay: In vitro CYP metabolism of neonicotinoids, duck liver microsomes, metabolites quantified by LC/MS/MS; format: in vitro ADME, duck (Anas platyrhynchos)
Protocol: as §1

[4] = tested on: goose liver microsomes (CYP); assay: In vitro CYP metabolism of neonicotinoids, goose liver microsomes, metabolites quantified by LC/MS/MS; format: in vitro ADME, goose (Anser domesticus)
Protocol: as §2

[5] = tested on: liver microsomes from various species; assay: Metabolite screening by LC/Q-TOF in reaction mixtures using liver microsomes from various species; format: in vitro ADME, chicken, duck, goose, quail, rat
Protocol: The assay of neonicotinoid metabolism using liver microsome was modified from that of a previous study. Since we had insufficient liver samples to produce the microsomes of geese and quails, the substrates of imidacloprid and clothianidin were not applied for those microsome reactions. However, microsomes of chicken, ducks, and rats were used for all substrate reactions. […] Then, the reaction was initiated by adding a mixture of G6PDH (2 IU/mL) and β-NADPH (0.5 mM), and continuously incubating for 30 min. Then, 0.1% formic acid in acetonitrile was added to stop the reaction. After that, the reaction sample was placed on ice for 15 min before centrifugation at 12,000 g for 10 min. The supernatant (100 μL) was collected and then spiked with neonicotinoid internal standard mixtures (50 μL), then evaporated using a centrifugal evaporator (CVE-200D with UT-2000, EYELA, Tokyo, Japan). The dried sample was re-dissolved with 20% methanol (v/v) and transferred into vials for chemical analysis.
A liquid chromatograph quadrupole time-of-flight (6546 LC/Q-TOF; Agilent Technologies, Santa Clara, CA, USA) operated with a 1.8 μm Eclipse Plus C18 RRHD analytical column (2.1 × 150 mm; Agilent Technologies, CA, USA) at a flow rate of 0.25 mL/min was used in the screening test to search for chromatographic peaks with the exact molecular mass of the possible neonicotinoid metabolites (Table S3). The mobile phases were 10 mM ammonium formate in water (A) and 10 mM ammonium formate in MeOH (B). The gradient elution of mobile phase B was set as follows: 2% (0–1 min), 100% (1–30 min), continued 100% (30–39 min), and a 4 min post-run at 2%. An injection volume was 5 μL and the column temperature was maintained at 45 °C. The expected formulas of potential metabolites of the four neonicotinoids were derived from previous publications on neonicotinoid metabolites in environment samples [29, 30] and in animals.
Several neonicotinoid metabolites were formed in our current in vitro biotransformation assays (Table 1).

[6] = tested on: chicken liver microsomes (CYP); assay: In vitro CYP metabolism of neonicotinoids, chicken liver microsomes, metabolites quantified by LC/MS/MS; format: in vitro ADME, chicken (Gallus domesticus)
Protocol: as §1

[7] = tested on: nicotinic acetylcholine receptors; conditions: cited from earlier work
fish leukocytes = tested on: fish leukocytes; set-up: method as in PMID 38594566; conditions: compared with parent substances; cited from earlier work
[8] = clothianidin to clothianidin-urea
[9] = clothianidin to dn-clothianidin
[10] = clothianidin to dm-clothianidin
[11] = imidacloprid to 4OH-imidacloprid
[12] = imidacloprid to 5OH-imidacloprid
[13] = imidacloprid to dn-imidacloprid
[14] = imidacloprid to imidacloprid-olefin

C/C(=N\C#N)N(C)Cc1ccc(Cl)nc1 [Acetamiprid]
Vmax ([1]; acetamiprid to dm-acetamiprid): 0.1 ± 0.0 pmol/min/mg protein | Vmax ([2]; acetamiprid to dm-acetamiprid): 0.3 ± 0.1 pmol/min/mg protein | Vmax ([3]; acetamiprid to dm-acetamiprid): 0.4 ± 0.0 pmol/min/mg protein | Vmax ([4]; acetamiprid to dm-acetamiprid): 1.3 ± 0.2 pmol/min/mg protein | Species in which metabolite N-[(6-chloro-3-pyridyl) methyl]-N-methyl acetamidine was identified ([5]; substrate acetamiprid 800 µM): Duck, Goose, Quail, Rat | Species in which metabolite N-desmethyl-acetamiprid was identified ([5]; substrate acetamiprid 800 µM): Chicken, Duck, Goose, Quail, Rat | Species in which metabolite N-methyl(6-chloro-3-pyridyl) methylamine was identified ([5]; substrate acetamiprid 800 µM): Chicken, Duck, Goose, Quail, Rat | Vmax ([6]; acetamiprid to dm-acetamiprid): 1.2 ± 0.0 pmol/min/mg protein

CN/C(=N\[N+](=O)[O-])NCc1cnc(Cl)s1 [Clothianidin]
Affinity to nicotinic acetylcholine receptors [7]: high affinity to nicotinic acetylcholine receptors | Vmax [1, 8]: 0.012 ± 0.002 pmol/min/mg protein | Vmax [1, 9]: 0.2 ± 0.0 pmol/min/mg protein | Vmax [3, 8]: 0.005 ± 0.001 pmol/min/mg protein | Vmax [3, 10]: 2.9 ± 1.3 pmol/min/mg protein | Vmax [3, 9]: 0.3 ± 0.1 pmol/min/mg protein | Species in which metabolite clothianidin-urea was identified ([5]; substrate clothianidin 800 µM, goose and quail not analyzed): Chicken, Duck, Rat | Vmax [6, 8]: 0.008 ± 0.001 pmol/min/mg protein | Vmax [6, 10]: 4.4 ± 1.2 pmol/min/mg protein | Vmax [6, 9]: 0.1 ± 0.0 pmol/min/mg protein

O=[N+]([O-])NC1=NCCN1Cc1ccc(Cl)nc1 [Imidacloprid]
Vmax [1, 11]: 0.1 ± 0.0 pmol/min/mg protein | Vmax [1, 12]: 0.1 ± 0.0 pmol/min/mg protein | Vmax [1, 13]: 0.1 ± 0.0 pmol/min/mg protein | Vmax [3, 11]: 0.1 ± 0.0 pmol/min/mg protein | Vmax [3, 12]: 0.1 ± 0.0 pmol/min/mg protein | Vmax [3, 13]: 0.2 ± 0.0 pmol/min/mg protein | Vmax [3, 14]: 0.03 ± 0.0 pmol/min/mg protein | Vmax [6, 11]: 0.5 ± 0.0 pmol/min/mg protein | Vmax [6, 12]: 0.5 ± 0.0 pmol/min/mg protein | Vmax [6, 13]: 1.0 ± 0.7 pmol/min/mg protein | Vmax [6, 14]: 0.2 ± 0.0 pmol/min/mg protein

CN1COCN(Cc2cnc(Cl)s2)/C1=N\[N+](=O)[O-] [Thiamethoxam]
Vmax ([1]; thiamethoxam to clothianidin): 0.1 ± 0.0 pmol/min/mg protein | Vmax ([2]; thiamethoxam to clothianidin): 0.4 ± 0.1 pmol/min/mg protein | Vmax ([3]; thiamethoxam to clothianidin): 0.1 ± 0.0 pmol/min/mg protein | Vmax ([4]; thiamethoxam to clothianidin): 0.2 ± 0.1 pmol/min/mg protein | Species in which metabolite N-desmethyl-thiamethoxam was identified ([5]; substrate thiamethoxam 800 µM): Chicken, Duck, Goose, Quail, Rat | Species in which metabolite clothianidin was identified ([5]; substrate thiamethoxam 800 µM): Chicken, Duck, Goose, Quail, Rat | Species in which metabolite clothianidin-urea was identified ([5]; substrate thiamethoxam 800 µM): Chicken, Duck, Goose, Quail, Rat | Species in which metabolite dm-clothianidin was identified ([5]; substrate thiamethoxam 800 µM): Chicken | Species in which metabolite thiamethoxam-urea was identified ([5]; substrate thiamethoxam 800 µM): Chicken, Duck, Goose, Quail, Rat | Vmax ([6]; thiamethoxam to clothianidin): 1.2 ± 0.0 pmol/min/mg protein | Vmax ([6]; thiamethoxam to dm-clothianidin): 0.01 ± 0.00 pmol/min/mg protein

NC1=NCCN1Cc1ccc(Cl)nc1 [dn-imidacloprid, desnitro-imidacloprid]
Affinity for nicotinic acetylcholine receptors ([7]; compared with imidacloprid): higher affinity for nicotinic acetylcholine receptors than imidacloprid | Cytotoxicity potency on fish leukocytes (fish leukocytes): higher cytotoxicity potency on fish leukocytes than their parent substances

NC(=O)N=C1SCCN1Cc1ccc(Cl)nc1 [thiacloprid-amide]
Cytotoxicity potency on fish leukocytes (fish leukocytes): higher cytotoxicity potency on fish leukocytes than their parent substances
